Results as given in ChEMBL document CHEMBL6103578, “Design and synthesis three novel series of derivatives using natural acetylcholinesterase inhibitor-RLMS as template and in vitro, in vivo and in silico activities verification” (Eur J Med Chem, 2025).
Activity calls are given as the source filed them. The calls are words filed in the database; no cut-off is given here.

Experiments:
[1] = molecular target: T1, Acetylcholinesterase (Homo sapiens, UniProt P22303); assay: Inhibition of AChE (unknown origin) using ATCI as substrate preincubated for 20 mins followed by substrate addition measured after 30 mins by DTNB assay
[2] = molecular target: T1, Acetylcholinesterase; assay: Mixed competitive inhibition of AChE (unknown origin) at 2 to 8 uM by DTNB assay; details: dose 2-8 µM
[3] = molecular target: T1, Acetylcholinesterase; assay: Binding affinity to AChE (unknown origin) assessed as dissociation constant by MST assay
[4] = tested on: SH-SY5Y; assay: Neuroprotective effect against H2O2-induced cell injury in human SH-SY5Y cells assessed as cell survival at 25 to 100 uM preincubated for 1 hr followed by H2O2 addition measured after 2 hrs by MTT assay (reference value: 57.76 %); assay type: functional; details: dose 25-100 µM, time 3 hrs
[5] = tested on: SH-SY5Y; assay: Neuroprotective effect against H2O2-induced cell injury in human SH-SY5Y cells assessed as cell survival at 25 uM preincubated for 1 hr followed by H2O2 addition measured after 2 hrs by MTT assay (reference value: 57.76 %); assay type: functional; details: time 3 hrs, read-out: Activity
[6] = Toxicity in zebrafish assessed as change in heart rate at 1 to 100 uM measured 96 hrs post-fertilization; design: species or system Danio rerio; details: in vivo, dose 1-100 µM
[7] = Toxicity in zebrafish assessed as deformaties in animal at 100 uM measured 96 hrs post-fertilization; design: species or system Danio rerio; details: in vivo
[8] = Toxicity in zebrafish assessed as decrease in survival rate at 100 uM measured 96 hrs post-fertilization; design: species or system Danio rerio; details: in vivo
[9] = Toxicity in zebrafish assessed as malformation in animal at 100 uM measured 96 hrs post-fertilization; design: species or system Danio rerio; details: in vivo
[10] = species on record: Danio rerio; assay: Anti-alzheimer activity in AlCl3-treated zebrafish assessed as increase in movement distance at 25 to 75 uM treated for 72 hrs with medium replacement containing compound daily by light/dark cycle behavioral test; assay type: functional, organism-based; details: dose 25-75 µM
[11] = species on record: Danio rerio; assay: Anti-alzheimer activity in AlCl3-treated zebrafish assessed as increase in movement speed at 25 to 75 uM treated for 72 hrs with medium replacement containing compound daily by light/dark cycle behavioral test; assay type: functional, organism-based; details: dose 25-75 µM
[12] = species on record: Danio rerio; assay: Anti-alzheimer activity in AlCl3-treated zebrafish assessed as inhibition of apoptosis in brain treated for 72 hrs with medium replacement containing compound daily by AO staining based analysis; assay type: functional, organism-based; details: dose 25-75 µM

T1 sequence (P22303 whole entry): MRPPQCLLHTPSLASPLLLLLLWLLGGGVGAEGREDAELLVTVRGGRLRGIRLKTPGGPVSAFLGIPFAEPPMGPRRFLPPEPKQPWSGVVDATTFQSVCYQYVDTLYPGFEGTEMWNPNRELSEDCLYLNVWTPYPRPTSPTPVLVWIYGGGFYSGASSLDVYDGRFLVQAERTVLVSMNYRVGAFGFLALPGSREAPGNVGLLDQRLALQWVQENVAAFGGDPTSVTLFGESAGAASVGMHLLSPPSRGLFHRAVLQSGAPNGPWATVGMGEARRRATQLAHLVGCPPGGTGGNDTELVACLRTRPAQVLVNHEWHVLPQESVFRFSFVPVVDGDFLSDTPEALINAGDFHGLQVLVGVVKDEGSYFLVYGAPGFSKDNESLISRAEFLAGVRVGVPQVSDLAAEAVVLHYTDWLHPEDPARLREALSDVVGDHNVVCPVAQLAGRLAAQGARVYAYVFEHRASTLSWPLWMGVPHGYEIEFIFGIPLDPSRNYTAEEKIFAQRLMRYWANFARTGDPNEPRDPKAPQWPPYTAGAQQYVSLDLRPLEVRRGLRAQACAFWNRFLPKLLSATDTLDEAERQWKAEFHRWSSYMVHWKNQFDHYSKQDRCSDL

In the case of `C[C@@H]1CC[C@]2(C(=O)NCc3ccccc3Cl)CC[C@]3(C)C(=CC[C@@H]4[C@@]5(C)C[C@@H](O)[C@H](O)[C@@](C)(CO)[C@@H]5CC[C@]43C)[C@@H]2[C@]1(C)O`, the IC50 [1] is reported as 3.7 µM, the inhibition [2] is reported as “Active” and the Kd [3] is reported as 5.37 µM. The Activity [4] was >57.76%, the viability at 25 µM [5] was 80% and the Activity [6] was “Non-toxic”. The Activity [7] was “Toxic”, the Activity [8] was “Toxic” and the Activity [9] was “Toxic”. The Activity [10] was “Active”, the Activity [11] was “Active” and the Activity [12] was “Dose-dependent-effect”.
